Drawing on ChEMBL document CHEMBL1143254, “Structure-based design of novel 2-amino-6-phenyl-pyrimido[5',4':5,6]pyrimido[1,2-a]benzimidazol-5(6H)-ones as potent and orally active inhibitors of lymphocyte specific kinase (Lck): synthesis, SAR, and in vivo anti-inflammatory activity” (J Med Chem, 2008), this text covers IC50 and solubility for 20 compounds.

In brackets after ≈: the same amount, converted by molar mass.

Data set [1] concerns the target Tyrosine-protein kinase Lck (Homo sapiens, UniProt P06239).
Description: Inhibition of Lck by HTRF assay
A further data set deals with Lymphocyte. Briefly: Inhibition of T cell activation in human peripheral blood lymphocytes by mixed lymphocyte reaction. Type of data set: functional, cell-based.
Data set [2] deals with Vascular endothelial growth factor receptor 2 (Homo sapiens, UniProt P35968). The data set is described as follows: Inhibition of KDR by HTRF assay. Background: TR-FRET usually uses a lanthanide donor and a delayed reading to cut background.
Data set [3] addresses Mitogen-activated protein kinase 14 (Homo sapiens, UniProt Q16539). The data set is described as follows: Inhibition of p38-alpha by HTRF assay.
In data set [4] the target is Proto-oncogene tyrosine-protein kinase Src (Homo sapiens, UniProt P12931). The data set is described as follows: Inhibition of Src by HTRF assay.
The next data set deals with T-cell. Briefly: Inhibition of anti-CD3/CD28-induced IL2 production in human T cells. Type of data set: functional, cell-based.
A short description of data set [5]: Solubility in simulated intestinal fluid at pH 6.8. Type of data set: physicochemical.

Sequence of Tyrosine-protein kinase Lck (P06239 whole entry): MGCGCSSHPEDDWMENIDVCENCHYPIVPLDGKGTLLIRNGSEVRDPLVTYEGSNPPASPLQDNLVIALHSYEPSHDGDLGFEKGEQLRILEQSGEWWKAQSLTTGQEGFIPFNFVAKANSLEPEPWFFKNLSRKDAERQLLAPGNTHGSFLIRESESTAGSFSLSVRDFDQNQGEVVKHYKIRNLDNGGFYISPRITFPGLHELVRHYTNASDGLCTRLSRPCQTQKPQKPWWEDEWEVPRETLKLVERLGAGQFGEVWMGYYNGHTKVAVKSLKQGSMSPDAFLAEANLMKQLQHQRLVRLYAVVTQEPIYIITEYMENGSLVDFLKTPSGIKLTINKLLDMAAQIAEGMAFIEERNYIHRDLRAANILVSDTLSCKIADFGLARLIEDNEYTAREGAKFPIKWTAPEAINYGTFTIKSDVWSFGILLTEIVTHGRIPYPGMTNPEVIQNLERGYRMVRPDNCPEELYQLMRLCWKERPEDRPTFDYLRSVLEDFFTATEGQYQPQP
Sequence of Proto-oncogene tyrosine-protein kinase Src (P12931 2-536 limits assumed): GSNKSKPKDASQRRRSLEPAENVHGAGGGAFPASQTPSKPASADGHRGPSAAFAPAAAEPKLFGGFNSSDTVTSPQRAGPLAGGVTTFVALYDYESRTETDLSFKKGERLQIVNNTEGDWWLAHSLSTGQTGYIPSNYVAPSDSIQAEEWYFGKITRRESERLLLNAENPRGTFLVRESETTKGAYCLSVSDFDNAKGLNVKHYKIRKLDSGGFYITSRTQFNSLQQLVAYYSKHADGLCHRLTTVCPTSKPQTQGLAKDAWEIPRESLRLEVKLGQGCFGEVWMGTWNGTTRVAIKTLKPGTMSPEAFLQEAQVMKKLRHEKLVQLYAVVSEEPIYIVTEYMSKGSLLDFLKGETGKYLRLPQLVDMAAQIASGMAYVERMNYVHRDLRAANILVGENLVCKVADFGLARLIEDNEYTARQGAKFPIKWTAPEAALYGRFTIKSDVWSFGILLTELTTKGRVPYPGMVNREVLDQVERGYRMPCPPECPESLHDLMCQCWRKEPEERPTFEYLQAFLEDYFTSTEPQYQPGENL
Sequence of Mitogen-activated protein kinase 14 (Q16539 whole entry): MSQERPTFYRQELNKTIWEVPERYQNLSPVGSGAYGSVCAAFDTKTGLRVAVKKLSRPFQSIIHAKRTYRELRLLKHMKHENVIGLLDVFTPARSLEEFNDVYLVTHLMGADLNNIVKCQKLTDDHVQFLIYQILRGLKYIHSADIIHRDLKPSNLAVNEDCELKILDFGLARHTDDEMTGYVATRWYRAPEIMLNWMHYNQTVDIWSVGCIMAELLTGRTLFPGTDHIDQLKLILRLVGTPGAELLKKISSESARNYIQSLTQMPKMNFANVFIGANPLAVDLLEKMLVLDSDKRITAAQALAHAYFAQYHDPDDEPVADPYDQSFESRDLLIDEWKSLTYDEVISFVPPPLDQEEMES
Sequence of Vascular endothelial growth factor receptor 2 (P35968 whole entry): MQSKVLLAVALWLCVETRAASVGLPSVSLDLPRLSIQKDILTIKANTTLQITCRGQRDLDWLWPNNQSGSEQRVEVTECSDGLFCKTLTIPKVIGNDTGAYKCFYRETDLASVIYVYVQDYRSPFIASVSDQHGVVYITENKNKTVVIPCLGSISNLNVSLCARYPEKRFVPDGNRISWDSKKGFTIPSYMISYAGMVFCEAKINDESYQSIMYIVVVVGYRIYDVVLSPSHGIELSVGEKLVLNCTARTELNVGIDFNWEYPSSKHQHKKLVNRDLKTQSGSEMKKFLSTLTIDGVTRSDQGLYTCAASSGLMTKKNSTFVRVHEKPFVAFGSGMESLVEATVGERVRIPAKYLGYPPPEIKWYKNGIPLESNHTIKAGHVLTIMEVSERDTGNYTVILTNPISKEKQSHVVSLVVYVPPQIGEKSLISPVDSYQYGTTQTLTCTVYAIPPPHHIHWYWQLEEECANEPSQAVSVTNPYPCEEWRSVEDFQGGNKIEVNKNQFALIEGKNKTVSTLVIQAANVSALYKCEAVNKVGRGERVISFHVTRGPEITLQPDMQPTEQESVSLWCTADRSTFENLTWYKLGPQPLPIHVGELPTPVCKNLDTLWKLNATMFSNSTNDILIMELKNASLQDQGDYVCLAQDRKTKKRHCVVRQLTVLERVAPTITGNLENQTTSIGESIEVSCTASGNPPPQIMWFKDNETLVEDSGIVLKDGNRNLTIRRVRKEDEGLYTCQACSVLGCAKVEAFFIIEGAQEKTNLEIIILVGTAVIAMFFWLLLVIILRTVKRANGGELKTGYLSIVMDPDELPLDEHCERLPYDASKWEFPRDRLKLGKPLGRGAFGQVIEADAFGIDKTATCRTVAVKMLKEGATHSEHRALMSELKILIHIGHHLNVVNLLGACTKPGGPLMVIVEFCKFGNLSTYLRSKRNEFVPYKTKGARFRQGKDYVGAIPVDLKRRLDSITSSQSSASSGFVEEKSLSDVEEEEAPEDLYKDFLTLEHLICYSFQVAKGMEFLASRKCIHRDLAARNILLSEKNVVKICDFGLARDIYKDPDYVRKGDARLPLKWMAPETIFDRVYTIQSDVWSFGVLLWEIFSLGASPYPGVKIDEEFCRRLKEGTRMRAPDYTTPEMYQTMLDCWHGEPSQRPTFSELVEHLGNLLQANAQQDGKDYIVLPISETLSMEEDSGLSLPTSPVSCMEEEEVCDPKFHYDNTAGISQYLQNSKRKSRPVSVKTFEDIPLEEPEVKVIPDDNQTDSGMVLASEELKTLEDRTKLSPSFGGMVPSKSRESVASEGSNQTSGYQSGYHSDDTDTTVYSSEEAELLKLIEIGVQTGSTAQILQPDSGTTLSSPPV

`Cc1cccc(C)c1-n1c(=O)c2cnc(Nc3ccc(OCCN(C)C)cc3)nc2n2c3ccccc3nc12`: the IC50 (commonly the midpoint of a concentration-inhibition curve) in data set [1] was 0.028 µM; in the data set with Lymphocyte, 0.084 µM; in data set [2] it was 6.6 µM; in data set [3], more than 10 µM; in data set [4] it was 0.44 µM.

With `COc1cc(Nc2ncc3c(=O)n(-c4c(C)cccc4C)c4nc5ccccc5n4c3n2)ccc1N1CCN(C)CC1`, the IC50 amounted to 0.43 µM in the data set with T-cell; 0.005 µM in data set [1]; 0.051 µM in the data set with Lymphocyte; 3.6 µM in data set [2]; 7.5 µM in data set [3]; 0.1 µM in data set [4]. Moreover, in data set [5], the solubility (commonly the concentration that dissolves in the medium under given conditions) is more than 200 µg/mL.

For the compound `Cc1cccc(C)c1-n1c(=O)c2cnc(Nc3ccc(OCCN4CCN(C)CC4)c(F)c3)nc2n2c3ccccc3nc12`, the IC50 with T-cell was 2.7 µM; in data set [1] it was 0.023 µM; in the data set with Lymphocyte, 0.51 µM; in data set [2], 7.4 µM; in data set [3], more than 10 µM; in data set [4] it was 0.16 µM.

On to `Cc1ccc(-n2c(=O)c3cnc(Nc4ccc(N5CCN(C)CC5)cc4)nc3n3c4ccccc4nc23)cc1`, for which the figures for the IC50 in data set [1], in data set [2] and in data set [4] were 0.35 µM, more than 25 µM and 1.7 µM, respectively.

In the case of `COc1cc(Nc2ncnc(-n3c(Nc4c(C)cccc4C)nc4ccccc43)n2)cc(OC)c1OC`, the concentration for half-maximal inhibition (IC50) turned out to be 0.001 µM in data set [1], 0.004 µM in data set [2] and 0.078 µM in data set [3].

Take `COc1ccc(Cl)cc1-n1c(=O)c2cnc(Nc3ccc(N4CCN(C)CC4)cc3)nc2n2c3ccccc3nc12`: the 50% inhibitory concentration (IC50) in data set [1] was 0.023 µM; in the data set on Lymphocyte it was 1 µM; in data set [2], more than 25 µM; in data set [4], 1.4 µM.

As for `COc1cc(Nc2ncc3c(=O)n(-c4c(C)cccc4C)c4nc5ccccc5n4c3n2)cc(OC)c1OC`, the IC50 was 0.97 µM with T-cell; 0.027 µM in data set [1]; 0.47 µM in the data set with Lymphocyte; 1.9 µM in data set [2]; more than 10 µM in data set [3]; 0.21 µM in data set [4]. The solubility in data set [5] was 15 µg/mL (≈ 28.7 µM).

`COc1cc(Nc2ncnc(-n3c(Nc4ccccc4)nc4ccccc43)n2)cc(OC)c1OC` registered an IC50 in data set [3] of 0.463 µM.

As for `COc1cc(Nc2ncc3c(=O)n(-c4c(C)cccc4C)c4nc5ccccc5n4c3n2)cc(OC)c1OCCN1CCN(C)CC1`, the IC50 with T-cell was 0.61 µM; in data set [1], 0.006 µM; in the data set on Lymphocyte, 0.29 µM; in data set [2], 3.3 µM; in data set [3] it was more than 10 µM; in data set [4], 0.077 µM. In data set [5], this compound returned a solubility of more than 200 µg/mL.

Turning to `CN1CCN(c2ccc(Nc3ncc4c(=O)n(-c5c(Cl)cc(Cl)cc5Cl)c5nc6ccccc6n5c4n3)cc2)CC1`, the 50% inhibitory concentration (IC50) in data set [1] was 0.008 µM; with Lymphocyte, 0.14 µM; in data set [2], 0.48 µM; in data set [3] it was more than 10 µM; in data set [4] it was 0.035 µM.

On to `COc1cc(Nc2ncc3c(=O)n(-c4c(C)cccc4C)c4nc5ccccc5n4c3n2)cc(OC)c1OCCN1CCOCC1`, for which the IC50 is 0.36 µM with T-cell; 0.01 µM in data set [1]; 0.18 µM in the data set with Lymphocyte; 1.7 µM in data set [2]; more than 10 µM in data set [3]; 0.044 µM in data set [4]. The same compound gave a solubility in data set [5] of 18 µg/mL (≈ 29 µM).

For `CCCCOc1ccc(-n2c(=O)c3cnc(Nc4ccc(N5CCN(C)CC5)cc4)nc3n3c4ccccc4nc23)cc1`, the IC50 is 4.6 µM in data set [1], more than 25 µM in data set [2] and 8.3 µM in data set [4].

With `COc1cc(Nc2ncc3c(=O)n(-c4c(C)cccc4C)c4nc5ccccc5n4c3n2)cc(OC)c1OCCCN1CCN(C)CC1`, the IC50 with T-cell was 0.19 µM; in data set [1] it was 0.006 µM; in the data set with Lymphocyte, 0.08 µM; in data set [2], 4 µM; in data set [3], more than 10 µM; in data set [4] it was 0.07 µM.

As to `COc1cc(Nc2ncc3c(=O)n(-c4c(C)cccc4C)c4nc5ccccc5n4c3n2)ccc1OCCCN1CCN(C)CC1`, the IC50 in the data set with T-cell was 1.5 µM; in data set [1], 0.012 µM; in the data set on Lymphocyte, 0.14 µM; in data set [2], 5 µM; in data set [3], more than 10 µM; in data set [4], 0.18 µM. The compound further gave a solubility in data set [5] of more than 200 µg/mL.

As to `Cc1cccc(C)c1-n1c(=O)c2cnc(Nc3ccc(OCCCN4CCCCC4)cc3)nc2n2c3ccccc3nc12`, the IC50 in the data set with T-cell was 3.6 µM; in data set [1], 0.012 µM; in the data set on Lymphocyte, 0.37 µM; in data set [2] it was 5.1 µM; in data set [3], 4.3 µM; in data set [4], 0.16 µM. In data set [5], this compound registered a solubility of 101 µg/mL (≈ 176 µM).

For the compound `CN1CCN(c2ccc(Nc3ncc4c(=O)n(-c5c(Cl)cccc5Cl)c5nc6ccccc6n5c4n3)cc2)CC1`, the IC50 in data set [1] stood at 0.01 µM; with Lymphocyte, 1.1 µM; in data set [2] it was 0.53 µM; in data set [4], 0.049 µM.

On to `COc1cc(Nc2ncc3c(=O)n(-c4c(C)cccc4C)c4nc5ccccc5n4c3n2)ccc1OCCN1CCN(C)CC1`, for which the IC50 is 16 µM in the data set with T-cell; 0.019 µM in data set [1]; 0.15 µM with Lymphocyte; 5.5 µM in data set [2]; more than 10 µM in data set [3]; 0.24 µM in data set [4].

Turning to `Cc1cccc(C)c1-n1c(=O)c2cnc(Nc3ccc(OCCCN(C)C)cc3)nc2n2c3ccccc3nc12`, the IC50 in the data set with T-cell is 1.1 µM; in the data set with Lymphocyte it was 0.1 µM; in data set [2], 4.2 µM; in data set [3] it was more than 10 µM; in data set [4], 0.36 µM. This compound registered a solubility in data set [5] of 155 µg/mL (≈ 290 µM).

As for `Cc1cccc(-n2c(=O)c3cnc(Nc4ccc(N5CCN(C)CC5)cc4)nc3n3c4ccccc4nc23)c1`, the IC50 in data set [1] was 0.096 µM; in data set [2], more than 25 µM; in data set [4] it was 1 µM.

As to `COc1cccc(-n2c(=O)c3cnc(Nc4ccc(N5CCN(C)CC5)cc4)nc3n3c4ccccc4nc23)c1`, the concentration for half-maximal inhibition (IC50) in data set [1] was 0.19 µM; in data set [2], 8.3 µM; in data set [4], 1.9 µM.
